#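 These data come from cells grown in 96-well plates and exposed to compound for 48 hours at five concentrations. GI50: concentration for 50% inhibition of growth.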 The source made the active and inactive calls. Rule as the data show it: active = GI50 up to about 1.1 µM and inactive = higher.
# Columns and labels:
# Test in all cases: inhibition of tumour cell growth, NCI panel, 48 h
# NCI/ADR-RES = system: NCI/ADR-RES
# DU-145 = system: DU-145
# Hs-578T = system: Hs-578T
# CAKI-1 = system: CAKI-1
# T47D = system: T47D
# MDA-N = system: MDA-N
# MDA-MB-435 = system: MDA-MB-435
# MCF7 = system: MCF7
# NCI-H226 = system: NCI-H226
# SK-MEL-2 = system: SK-MEL-2
# RXF 393 = system: RXF 393
# BT-549 = system: BT-549
# Malme-3M = system: Malme-3M
# HCC 2998 = system: HCC 2998
# PC-3 = system: PC-3
# SK-MEL-28 = system: SK-MEL-28
# A498 = system: A498
# SNB-75 = system: SNB-75
# HOP-92 = system: HOP-92
# OVCAR-3 = system: OVCAR-3
# UACC-62 = system: UACC-62
# SK-OV-3 = system: SK-OV-3
# COLO 205 = system: COLO 205
# MDA-MB-231 = system: MDA-MB-231
# ACHN = system: ACHN
# OVCAR-5 = system: OVCAR-5
# MOLT-4 = system: MOLT-4
# HOP-62 = system: HOP-62
# HCT-116 = system: HCT-116
# SF-268 = system: SF-268
# SN12C = system: SN12C
# TK-10 = system: TK-10
# OVCAR-8 = system: OVCAR-8
# UO-31 = system: UO-31
# K562 = system: K562
# SW-620 = system: SW-620
# SK-MEL-5 = system: SK-MEL-5
# NCI-H23 = system: NCI-H23
# EKVX = system: EKVX
# HT-29 = system: HT-29
# LOX IMVI = system: LOX IMVI
# HL-60 = system: HL-60
# CCRF-CEM = system: CCRF-CEM
# UACC-257 = system: UACC-257
# 786-0 = system: 786-0
# SR = system: SR
# U-251 = system: U-251
# M14 = system: M14
# KM12 = system: KM12
# SF-295 = system: SF-295
# HCT-15 = system: HCT-15
# SNB-19 = system: SNB-19
# IGROV-1 = system: IGROV-1
# RPMI-8226 = system: RPMI-8226
# NCI-H522 = system: NCI-H522
# NCI-H460 = system: NCI-H460
# SF-539 = system: SF-539
# OVCAR-4 = system: OVCAR-4
# A549 = system: A549
compound,measurement,setting,value
COc1c(OC(C)C)cc2cc(O)c(C(=O)NC3Cc4ccc(c(Cl)n4)O[C@@H]4C=C5C#C/C(=C\C#CC6OC56C4OC4CC(C)(O)C(O)C(C)O4)C(OC4CC(O)C(N(C)C)C(C)O4)COC3=O)cc2c1OC (stereo not given in full),GI50,NCI/ADR-RES,> 36.3 µM (inactive)
same,GI50,DU-145,11.5 µM (inactive)
same,GI50,Hs-578T,> 36.3 µM (inactive)
same,GI50,CAKI-1,10.9 µM (inactive)
same,GI50,T47D,> 36.3 µM (inactive)
same,GI50,MDA-N,> 36.3 µM (inactive)
same,GI50,MDA-MB-435,> 36.3 µM (inactive)
same,GI50,MCF7,2.64 µM (inactive)
same,GI50,NCI-H226,> 36.3 µM (inactive)
same,GI50,SK-MEL-2,> 36.3 µM (inactive)
same,GI50,RXF 393,> 36.3 µM (inactive)
same,GI50,BT-549,> 36.3 µM (inactive)
same,GI50,Malme-3M,> 36.3 µM (inactive)
same,GI50,HCC 2998,> 36.3 µM (inactive)
same,GI50,PC-3,35.8 µM (inactive)
same,GI50,SK-MEL-28,> 36.3 µM (inactive)
same,GI50,A498,> 36.3 µM (inactive)
same,GI50,SNB-75,> 36.3 µM (inactive)
same,GI50,HOP-92,> 36.3 µM (inactive)
Cc1ccc(-c2sc(-c3ccc(C)cc3)c3c2C2CCC3C2)cc1,GI50,OVCAR-3,> 50 µM (inactive)
same,GI50,UACC-62,> 50 µM (inactive)
same,GI50,SK-OV-3,> 50 µM (inactive)
same,GI50,COLO 205,> 50 µM (inactive)
same,GI50,MDA-MB-231,> 50 µM (inactive)
same,GI50,ACHN,> 50 µM (inactive)
same,GI50,NCI/ADR-RES,> 50 µM (inactive)
same,GI50,OVCAR-5,> 50 µM (inactive)
same,GI50,MOLT-4,> 50 µM (inactive)
same,GI50,HOP-62,> 50 µM (inactive)
same,GI50,DU-145,> 50 µM (inactive)
same,GI50,HCT-116,> 50 µM (inactive)
same,GI50,SF-268,> 50 µM (inactive)
same,GI50,Hs-578T,> 50 µM (inactive)
same,GI50,SN12C,> 50 µM (inactive)
same,GI50,TK-10,> 50 µM (inactive)
same,GI50,OVCAR-8,> 50 µM (inactive)
same,GI50,UO-31,> 50 µM (inactive)
same,GI50,CAKI-1,> 50 µM (inactive)
same,GI50,K562,> 50 µM (inactive)
same,GI50,SW-620,> 50 µM (inactive)
same,GI50,SK-MEL-5,> 50 µM (inactive)
same,GI50,NCI-H23,> 50 µM (inactive)
same,GI50,EKVX,> 50 µM (inactive)
same,GI50,HT-29,> 50 µM (inactive)
same,GI50,T47D,> 50 µM (inactive)
same,GI50,LOX IMVI,> 50 µM (inactive)
same,GI50,MDA-N,> 50 µM (inactive)
same,GI50,HL-60,> 50 µM (inactive)
same,GI50,MDA-MB-435,> 50 µM (inactive)
same,GI50,NCI-H226,> 50 µM (inactive)
same,GI50,CCRF-CEM,> 50 µM (inactive)
same,GI50,UACC-257,> 50 µM (inactive)
same,GI50,SK-MEL-2,> 50 µM (inactive)
same,GI50,RXF 393,> 50 µM (inactive)
same,GI50,786-0,> 50 µM (inactive)
same,GI50,SR,> 50 µM (inactive)
same,GI50,U-251,> 50 µM (inactive)
same,GI50,M14,> 50 µM (inactive)
same,GI50,KM12,> 50 µM (inactive)
same,GI50,BT-549,> 50 µM (inactive)
same,GI50,SF-295,> 50 µM (inactive)
same,GI50,Malme-3M,> 50 µM (inactive)
same,GI50,HCT-15,> 50 µM
same,GI50,SNB-19,> 50 µM (inactive)
same,GI50,PC-3,> 50 µM (inactive)
same,GI50,SK-MEL-28,> 50 µM (inactive)
same,GI50,IGROV-1,> 50 µM (inactive)
same,GI50,RPMI-8226,> 50 µM (inactive)
same,GI50,NCI-H522,> 50 µM (inactive)
same,GI50,NCI-H460,> 50 µM (inactive)
same,GI50,SF-539,> 50 µM (inactive)
same,GI50,OVCAR-4,> 50 µM (inactive)
same,GI50,A498,> 50 µM (inactive)
same,GI50,A549,> 50 µM (inactive)
same,GI50,HOP-92,> 50 µM (inactive)

# Source: ChEMBL document CHEMBL1201862, “PubChem BioAssay data set” (2004)
